Results on 5 compounds are retold here after ChEMBL document CHEMBL5149992, “Discovery, Optimization, and Evaluation of Quinazolinone Derivatives with Novel Linkers as Orally Efficacious Phosphoinositide-3-Kinase Delta Inhibitors for Treatment of Inflammatory Diseases” (J Med Chem, 2021).

One data set is described as follows: in vitro. As to conditions: human, liver microsomes. (In general: Liver microsomes are a subcellular fraction often used to study metabolism.)
For data set [1], the target named is T1, Phosphatidylinositol 4,5-bisphosphate 3-kinase catalytic subunit beta isoform (Homo sapiens, UniProt P42338). As to the kind of experiment: Inhibition of PI3Kbeta (unknown origin) at 0.1 uM relative to control.
Target sequence in this assay (P42338 whole entry, looked up, canonical isoform): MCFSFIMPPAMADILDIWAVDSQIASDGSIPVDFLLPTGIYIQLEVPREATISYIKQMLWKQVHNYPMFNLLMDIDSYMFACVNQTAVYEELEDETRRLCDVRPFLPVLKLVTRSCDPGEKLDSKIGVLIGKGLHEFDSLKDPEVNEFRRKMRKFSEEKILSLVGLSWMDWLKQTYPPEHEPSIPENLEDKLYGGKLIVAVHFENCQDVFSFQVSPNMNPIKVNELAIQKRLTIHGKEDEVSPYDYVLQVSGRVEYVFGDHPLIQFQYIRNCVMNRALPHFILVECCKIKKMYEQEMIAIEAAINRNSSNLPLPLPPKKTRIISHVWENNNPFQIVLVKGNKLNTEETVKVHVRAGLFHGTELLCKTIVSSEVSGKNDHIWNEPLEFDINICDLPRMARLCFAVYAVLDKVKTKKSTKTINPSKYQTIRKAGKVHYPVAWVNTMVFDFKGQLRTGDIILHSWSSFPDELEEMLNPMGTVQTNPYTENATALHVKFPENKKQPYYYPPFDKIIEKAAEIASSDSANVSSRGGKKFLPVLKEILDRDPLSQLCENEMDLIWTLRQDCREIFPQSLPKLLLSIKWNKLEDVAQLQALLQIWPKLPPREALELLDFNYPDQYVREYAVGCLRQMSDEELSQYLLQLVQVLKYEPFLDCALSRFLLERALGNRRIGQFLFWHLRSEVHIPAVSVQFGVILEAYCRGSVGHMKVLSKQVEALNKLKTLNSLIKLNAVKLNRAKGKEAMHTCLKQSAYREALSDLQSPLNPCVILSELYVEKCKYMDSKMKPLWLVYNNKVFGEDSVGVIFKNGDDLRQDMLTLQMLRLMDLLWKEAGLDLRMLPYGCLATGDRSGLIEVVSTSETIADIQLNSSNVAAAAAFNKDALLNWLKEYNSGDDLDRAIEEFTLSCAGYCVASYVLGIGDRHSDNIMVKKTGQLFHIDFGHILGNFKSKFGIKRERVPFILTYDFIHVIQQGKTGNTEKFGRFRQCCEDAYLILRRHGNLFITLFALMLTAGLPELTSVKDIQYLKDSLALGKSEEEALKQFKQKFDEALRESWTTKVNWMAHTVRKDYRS
The target in data set [2] is T2, Phosphatidylinositol 4,5-bisphosphate 3-kinase catalytic subunit alpha isoform (Homo sapiens, UniProt P42336). As to the kind of experiment: Inhibition of PI3Kalpha (unknown origin) at 0.1 uM relative to control.
T2 sequence (P42336 whole entry, canonical isoform): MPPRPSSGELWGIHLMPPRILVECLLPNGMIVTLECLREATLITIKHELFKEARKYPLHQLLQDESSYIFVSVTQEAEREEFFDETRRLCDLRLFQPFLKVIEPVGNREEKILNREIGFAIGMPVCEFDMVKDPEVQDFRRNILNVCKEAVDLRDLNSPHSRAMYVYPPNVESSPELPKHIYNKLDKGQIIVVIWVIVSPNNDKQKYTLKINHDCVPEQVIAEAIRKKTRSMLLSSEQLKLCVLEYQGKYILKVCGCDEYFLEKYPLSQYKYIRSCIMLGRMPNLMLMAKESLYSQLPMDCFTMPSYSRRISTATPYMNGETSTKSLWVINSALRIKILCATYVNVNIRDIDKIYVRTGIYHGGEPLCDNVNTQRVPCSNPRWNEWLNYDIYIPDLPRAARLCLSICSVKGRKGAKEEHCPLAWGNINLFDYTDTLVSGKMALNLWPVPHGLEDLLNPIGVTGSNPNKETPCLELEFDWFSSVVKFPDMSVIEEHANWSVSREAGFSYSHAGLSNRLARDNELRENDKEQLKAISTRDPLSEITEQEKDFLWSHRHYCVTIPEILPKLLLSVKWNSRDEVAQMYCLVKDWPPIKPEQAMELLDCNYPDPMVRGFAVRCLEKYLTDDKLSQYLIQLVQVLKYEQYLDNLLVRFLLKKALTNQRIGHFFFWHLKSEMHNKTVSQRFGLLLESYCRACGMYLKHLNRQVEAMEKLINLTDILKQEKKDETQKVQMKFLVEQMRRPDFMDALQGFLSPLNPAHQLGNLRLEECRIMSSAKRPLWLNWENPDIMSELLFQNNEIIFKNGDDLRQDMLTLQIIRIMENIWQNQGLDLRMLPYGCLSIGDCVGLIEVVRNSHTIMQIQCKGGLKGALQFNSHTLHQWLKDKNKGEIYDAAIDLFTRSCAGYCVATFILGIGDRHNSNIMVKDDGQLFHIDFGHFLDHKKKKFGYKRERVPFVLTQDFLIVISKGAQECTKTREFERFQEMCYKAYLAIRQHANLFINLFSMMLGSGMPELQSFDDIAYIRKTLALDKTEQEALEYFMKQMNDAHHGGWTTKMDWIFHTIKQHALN
The target in data set [3] is T3, Phosphatidylinositol 4,5-bisphosphate 3-kinase catalytic subunit gamma isoform (Homo sapiens, UniProt P48736). Put plainly: Inhibition of PI3Kgamma (unknown origin).
Target sequence in this assay (P48736 whole entry, canonical isoform): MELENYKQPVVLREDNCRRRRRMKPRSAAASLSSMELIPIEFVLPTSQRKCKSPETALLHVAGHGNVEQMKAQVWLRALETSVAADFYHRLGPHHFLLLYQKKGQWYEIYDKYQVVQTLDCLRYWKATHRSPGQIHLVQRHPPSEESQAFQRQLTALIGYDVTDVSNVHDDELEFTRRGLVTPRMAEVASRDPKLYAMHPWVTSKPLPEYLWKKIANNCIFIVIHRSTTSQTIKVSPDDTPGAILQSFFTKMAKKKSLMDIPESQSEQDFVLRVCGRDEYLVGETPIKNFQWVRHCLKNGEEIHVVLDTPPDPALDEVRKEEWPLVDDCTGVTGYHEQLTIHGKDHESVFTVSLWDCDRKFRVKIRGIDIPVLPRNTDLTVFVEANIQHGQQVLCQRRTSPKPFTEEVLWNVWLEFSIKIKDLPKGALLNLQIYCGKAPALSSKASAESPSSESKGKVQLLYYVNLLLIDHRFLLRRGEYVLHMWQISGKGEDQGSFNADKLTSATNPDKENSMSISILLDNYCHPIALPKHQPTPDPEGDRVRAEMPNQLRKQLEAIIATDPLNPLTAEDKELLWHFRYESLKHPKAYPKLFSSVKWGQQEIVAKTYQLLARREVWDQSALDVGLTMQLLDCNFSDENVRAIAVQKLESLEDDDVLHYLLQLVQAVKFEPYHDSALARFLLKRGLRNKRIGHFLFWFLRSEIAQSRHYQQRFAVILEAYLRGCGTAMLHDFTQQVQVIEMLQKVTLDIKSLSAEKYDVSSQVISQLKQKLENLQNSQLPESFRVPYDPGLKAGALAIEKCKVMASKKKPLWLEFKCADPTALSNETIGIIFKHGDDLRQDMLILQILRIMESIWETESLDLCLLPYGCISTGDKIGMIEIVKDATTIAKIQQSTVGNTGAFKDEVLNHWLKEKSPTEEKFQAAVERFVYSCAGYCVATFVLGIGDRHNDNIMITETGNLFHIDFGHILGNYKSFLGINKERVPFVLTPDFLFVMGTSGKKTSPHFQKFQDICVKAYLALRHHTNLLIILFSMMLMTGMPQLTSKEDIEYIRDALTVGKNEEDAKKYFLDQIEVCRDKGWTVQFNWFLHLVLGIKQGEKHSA
The target of data set [4] is T4, Phosphatidylinositol 4,5-bisphosphate 3-kinase catalytic subunit delta isoform (Homo sapiens, UniProt O00329).
T4 sequence (O00329 whole entry): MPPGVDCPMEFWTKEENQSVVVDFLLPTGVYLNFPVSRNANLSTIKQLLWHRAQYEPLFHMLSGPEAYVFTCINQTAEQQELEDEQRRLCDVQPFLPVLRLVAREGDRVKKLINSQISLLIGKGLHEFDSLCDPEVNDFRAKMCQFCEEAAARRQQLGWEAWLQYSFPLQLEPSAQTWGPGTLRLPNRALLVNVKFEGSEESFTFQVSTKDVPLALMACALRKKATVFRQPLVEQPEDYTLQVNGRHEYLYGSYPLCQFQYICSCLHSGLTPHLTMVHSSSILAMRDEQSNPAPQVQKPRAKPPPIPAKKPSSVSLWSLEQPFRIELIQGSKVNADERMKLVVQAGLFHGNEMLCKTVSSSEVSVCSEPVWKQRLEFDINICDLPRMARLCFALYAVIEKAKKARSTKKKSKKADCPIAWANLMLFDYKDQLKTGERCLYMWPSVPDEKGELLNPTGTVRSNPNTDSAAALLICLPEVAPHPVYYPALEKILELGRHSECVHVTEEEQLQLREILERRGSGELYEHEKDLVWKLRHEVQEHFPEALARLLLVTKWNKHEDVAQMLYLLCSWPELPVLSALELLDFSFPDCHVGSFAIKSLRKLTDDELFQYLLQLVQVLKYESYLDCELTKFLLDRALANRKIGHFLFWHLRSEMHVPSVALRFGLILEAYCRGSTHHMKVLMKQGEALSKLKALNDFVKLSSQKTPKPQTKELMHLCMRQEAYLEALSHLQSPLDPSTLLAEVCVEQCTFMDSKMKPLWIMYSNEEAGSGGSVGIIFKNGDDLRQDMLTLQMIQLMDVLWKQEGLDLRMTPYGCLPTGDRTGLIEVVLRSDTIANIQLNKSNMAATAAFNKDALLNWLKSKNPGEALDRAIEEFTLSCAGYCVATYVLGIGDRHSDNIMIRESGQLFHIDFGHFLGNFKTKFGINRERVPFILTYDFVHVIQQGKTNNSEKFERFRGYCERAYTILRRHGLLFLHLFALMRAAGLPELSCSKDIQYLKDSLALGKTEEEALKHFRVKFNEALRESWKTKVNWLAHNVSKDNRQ
As to the kind of experiment: Inhibition of PI3Kdelta (unknown origin).

The conditions of data set [5]: human, microsomes, 10 µM.
The target of data set [6] is T5, Phosphatidylinositol 4,5-bisphosphate 3-kinase catalytic subunit delta isoform (Homo sapiens) (UniProt O00329).
T5 sequence (whole entry): T4 sequence (O00329 whole entry)
Put plainly: Inhibition of PI3Kdelta (unknown origin) at 0.1 uM relative to control.

The target in data set [7] is T3, Phosphatidylinositol 4,5-bisphosphate 3-kinase catalytic subunit gamma isoform. Put plainly: Inhibition of PI3Kgamma (unknown origin) at 0.1 uM relative to control.
Target sequence in this assay (P48736 whole entry, looked up, canonical isoform): as the sequence (P48736 whole entry, canonical isoform) above
Data set [8] concerns the target T5, Phosphatidylinositol 4,5-bisphosphate 3-kinase catalytic subunit delta isoform (Homo sapiens). Put plainly: Inhibition of PI3Kdelta (unknown origin) at 0.1 uM using phosphatidylinositol as substrate incubated for 30 mins in presence of ATP by HTRF based assay relative to control. On the technique in general: TR-FRET usually uses a lanthanide donor and a delayed reading to cut background.

The target in data set [9] is T2, Phosphatidylinositol 4,5-bisphosphate 3-kinase catalytic subunit alpha isoform. Put plainly: Inhibition of PI3Kalpha (unknown origin).
Data set [10] addresses T1, Phosphatidylinositol 4,5-bisphosphate 3-kinase catalytic subunit beta isoform. Put plainly: Inhibition of PI3Kbeta (unknown origin).
Target sequence in this assay (P42338 whole entry, canonical isoform): as the sequence (P42338 whole entry, looked up, canonical isoform) above
The target of data set [11] is T5, Phosphatidylinositol 4,5-bisphosphate 3-kinase catalytic subunit delta isoform (Homo sapiens). Put plainly: Inhibition of PI3Kdelta (unknown origin) at 0.01 uM using phosphatidylinositol as substrate incubated for 30 mins in presence of ATP by HTRF based assay relative to control.
Data set [12] is described as follows: Toxicity in mouse at 100 mg/kg, po. It counts as organism-based. As to conditions: in vivo.
The subject of another data set is Mus musculus. As to the kind of experiment: Antiarthritic activity in collagen-induced rheumatoid arthritis DBA1/J mouse model assessed as reduction in disease severity at 20 mg/kg, po qd measured once daily for 24 to 27 days. The class given is functional, organism-based. As to conditions: time 24-27 day.
In data set [13] the target is Phosphatidylinositol 4,5-bisphosphate 3-kinase catalytic subunit gamma isoform (Mus musculus, UniProt Q9JHG7). Put plainly: Inhibition of PI3Kgamma in c5a-stimulated mouse RAW264.7 cells assessed as reduction in AKT phosphorylation at S473 residue incubated for 30 mins. It counts as cell-based.
Sequence of Phosphatidylinositol 4,5-bisphosphate 3-kinase catalytic subunit gamma isoform (Mus musculus, UniProt Q9JHG7) (Q9JHG7 whole entry, canonical isoform): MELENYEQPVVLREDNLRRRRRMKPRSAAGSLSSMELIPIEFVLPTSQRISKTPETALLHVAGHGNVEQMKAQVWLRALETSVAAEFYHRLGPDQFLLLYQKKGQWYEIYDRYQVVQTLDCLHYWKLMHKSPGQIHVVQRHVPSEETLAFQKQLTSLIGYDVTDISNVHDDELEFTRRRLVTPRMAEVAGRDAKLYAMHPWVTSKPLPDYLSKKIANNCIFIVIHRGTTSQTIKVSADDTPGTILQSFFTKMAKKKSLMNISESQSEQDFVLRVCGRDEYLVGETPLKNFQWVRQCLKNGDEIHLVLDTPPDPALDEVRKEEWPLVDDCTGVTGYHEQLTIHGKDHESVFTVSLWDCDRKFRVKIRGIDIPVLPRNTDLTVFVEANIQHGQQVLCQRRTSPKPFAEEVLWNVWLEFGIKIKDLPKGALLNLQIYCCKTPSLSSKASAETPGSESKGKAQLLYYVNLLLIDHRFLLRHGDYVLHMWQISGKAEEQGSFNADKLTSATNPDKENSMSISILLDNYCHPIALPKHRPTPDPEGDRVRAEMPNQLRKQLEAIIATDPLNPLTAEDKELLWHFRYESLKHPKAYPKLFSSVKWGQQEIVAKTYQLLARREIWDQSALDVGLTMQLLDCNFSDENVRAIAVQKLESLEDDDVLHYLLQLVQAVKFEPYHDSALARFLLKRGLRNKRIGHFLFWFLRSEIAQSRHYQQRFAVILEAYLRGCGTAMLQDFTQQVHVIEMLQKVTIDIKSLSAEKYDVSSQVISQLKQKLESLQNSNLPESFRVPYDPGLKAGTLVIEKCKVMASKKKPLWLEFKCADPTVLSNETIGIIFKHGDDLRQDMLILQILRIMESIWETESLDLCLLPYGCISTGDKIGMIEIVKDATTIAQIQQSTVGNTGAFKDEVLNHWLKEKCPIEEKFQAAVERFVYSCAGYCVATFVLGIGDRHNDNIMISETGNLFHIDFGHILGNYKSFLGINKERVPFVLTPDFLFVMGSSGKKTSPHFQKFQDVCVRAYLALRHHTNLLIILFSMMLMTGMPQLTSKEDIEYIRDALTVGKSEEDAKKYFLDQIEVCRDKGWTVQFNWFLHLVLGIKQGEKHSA

pIC50: −log10 of the molar value. Activity calls are given as the source filed them.

As usually defined, the half-life is the time needed for the level to fall by half in the phase considered. Read a low half-life as fast loss. The inhibition is the relative decrease from the control value, in per cent. For orientation: pIC50 means the negative decadic logarithm of the IC50, by convention in mol/L. `C[C@H]1CC[C@@H](c2nc3cccc(Cl)c3c(=O)n2-c2cccnc2)N1c1ncnc(N)c1C#N`: in the data set “in vitro”, the half-life at 60 h, 10 µM was found to be 1.72 h. In addition, the results for the inhibition in data set [1] and in [2] were 45% and 18%, respectively. In addition, the pIC50 is 6.45 in data set [3] and 8.40 in data set [4]. For the same compound, in data set [5], the CLH is 13.4 mL/min/g.

`N#Cc1c(N)ncnc1N1[C@H](c2nc3cccc(Cl)c3c(=O)n2-c2cccc(OC(F)(F)F)c2)C[C@@H]2CCCC[C@@H]21` displayed an inhibition in data set [6] of 5%.

With `N#Cc1c(N)ncnc1N1[C@H](c2nc3cccc(Cl)c3c(=O)n2-c2cccc(F)c2)C[C@@H]2CCCC[C@@H]21`, the figures for the inhibition in data set [7], in data set [1] and in data set [2] were 5%, 17% and 4%, respectively. This compound also had a half-life at 60 h, 10 µM in “in vitro” of 2.31 h. Also, the pIC50 in data set [4] was 7.47. In data set [5], this compound displayed a CLH of 10 mL/min/g.

As for `N#Cc1c(N)ncnc1N1[C@H](c2nc3cccc(Cl)c3c(=O)n2-c2ccccc2)C[C@@H]2CCCC[C@@H]21`, in the data set “in vitro”, the half-life at 60 h, 10 µM is 1.17 h. In addition, the inhibition came out at 43% in data set [8] and 10% in data set [11]. For the same compound, the pIC50 in [3] was less than 6.00; in [9], less than 6.00; in [4] it was 7.05; in data set [10], less than 6.00. Besides, the CLH in [5] was determined as 19.8 mL/min/g. Besides, the Activity entry in [12] is “Non-Toxic”.

Regarding `CC[C@H](Nc1ncnc2[nH]cnc12)c1nc2cccc(F)c2c(=O)n1-c1ccccc1` [IDELALISIB], the result in the data set on Mus musculus was Active. In addition, the pIC50 in [13] is 5.89.
